Results published in a melting point compilation (Tetko et al.; mined from patent text by program, amines drawn as free bases though some values may be those of a salt).

melting point | Structure (SMILES)
138 to 140 °C | COc1ccc2c3c(ccc2c1)CC(=O)C3
93 to 95 °C | COc1nc(N2CC(O)C2)c(Cl)nc1NS(=O)(=O)c1cccc(Cl)c1Cl
119 to 120 °C | CCOC(=O)C(c1ccc(Nc2nc(-c3cccc(NC(=O)c4ccc(C(C)(C)C)cc4)c3C)cn(C)c2=O)cc1)N(C)C(C)C (stereo not given)
56.5 to 58.5 °C | CCOC(=O)c1c(O)cc(C(F)(F)Cl)nc1C(F)(F)F
89.5 to 92.5 °C | CCOC(=O)C(OC)C(=O)Nc1cc(Cl)cc(Cl)c1 (stereo not given)
141 to 143 °C | O=C1CC(Cl)=C(Cl)c2nc3cc(Cl)ccc3c(NCc3ccccc3)c21
119 to 122 °C | CCOC(=O)c1cc(S(N)(=O)=O)c(Cl)cc1Cl
49 to 50 °C | COCOc1cc(OC)cc(C)c1C(=O)c1ccc(OCc2ccccc2)cc1
255 to 257 °C | COC(=O)c1ccc2c(c1)Sc1ccccc1NC2=O
81 to 82 °C | COC(=O)C(C)(C)Sc1cccc(OCc2ccc(-c3ccc([N+](=O)[O-])cc3)o2)c1
55 to 58 °C | COc1ccc2cc([C@H](C)C(=O)OCCOC(=O)C(=O)OCCCO[N+](=O)[O-])ccc2c1
148 to 150 °C | CSc1ccc(C(C)C)c(NC(=O)CN2CCN(CCSc3nc4ccccc4o3)CC2)c1C(C)C
313 to 316 °C | O=C1NCC(c2ccc3[nH]c(-c4ccncc4)cc3c2)=NN1
256 to 258 °C | CC(=O)Nc1cnn2cnc3ccccc3c12
154 to 155 °C | CC(=NO)c1ccncc1
129 to 132 °C | CCCOc1ccccc1-c1nc(C=NNC(=O)OCC)c[nH]1
155 to 156 °C | Cc1noc(=O)c2ccc(NC(=O)C(=O)CC3(c4ccccc4)CC3)cc12
249 to 250 °C | CCn1cc(C(=O)O)c(=O)c2c1SC(=NOCC(=O)O)C2
96 to 103 °C | CC(C)(C#N)Cc1cccc(-c2cccc(CC(C)(C)C#N)c2)c1

melting point | Structure (SMILES)
76 to 80 °C | COc1ncc(C)cc1Nc1cc(C#N)c2c(c1)[C@@H]1CNCC[C@@H]1N2C
176 to 178 °C | CC(=O)OCC1=C(C(=O)OC(c2ccccc2)c2ccccc2)N2C(=O)C(NC(=O)Cc3csc(-c4ncccc4O)n3)C2SC1 (stereo not given)
142 to 144 °C | CCOC(=O)C1(CC(=O)O)C(=O)N(Cc2ccc(Br)cc2F)C(=O)c2cccn21 (stereo not given)
254 to 256 °C | CC(=O)Oc1ccc2cc(-c3ccc(C(=O)O)cc3)ccc2c1
153 °C | CC(C)(CC(F)(F)F)NC(=N)NC#N
85 to 87 °C | CCOC(=O)Cc1cc(Br)c(C(=O)c2ccc(C)cc2)n1C
260 °C | Cc1cc(=O)[nH]c(NC(=N)Nc2ccccc2C)n1
279 °C | COc1ccc(C(=O)Nc2c(Cl)cc(C(=O)O)cc2Cl)c2cc(C(C)C)oc12
77 to 82 °C | CCOC(=O)c1ccc(N2CCN(C(=O)N(CC)CC)CC2)cc1
210 to 214 °C | CS(=O)(=O)NCCCc1c[nH]c(-c2ccc(F)cc2)c1-c1ccncc1
248 to 249 °C | N#CCCNC(=O)c1n[nH]cc1NC(=O)c1cccc(C#N)c1
259 to 261 °C | O=C(O)c1cccc2c1ccn2-c1ccnc(N[C@H]2CC[C@H](O)CC2)n1
206 to 208 °C | O=C(CC1C2CC3CC(C2)CC1C3)Nc1cccc2[nH]ccc12 (stereo not given)
350 °C | Cn1cc(-c2cc3nccnc3[nH]2)c2cc(C(=O)O)ccc21
209 to 210 °C | O=CNn1cnc2cc(C(F)(F)F)ccc21
264 to 267 °C | Cc1nc(N)c2nc3n(c2c1C)C(C)COC3 (stereo not given)
126 to 127 °C | O=C(NC1CCCCC1)C(Br)c1ccccc1 (stereo not given)
129 to 131 °C | COC(=O)CCCc1cc2nc(Cl)ccc2n1S(=O)(=O)c1ccc(F)c([N+](=O)[O-])c1
123 to 126 °C | N#CC=C(C#N)Nc1ccccc1

Structure (SMILES) | melting point
COCC1CCN(c2ccc(C#N)c3ccccc23)CC1 | 96 to 97 °C
O=C(O)[C@H](Cc1ccc(-c2ccccc2)cc1)NCP(=O)(Oc1ccccc1)Oc1ccccc1 | 118 to 119 °C
